Test [1] deals with Sodium-dependent noradrenaline transporter (Homo sapiens) (UniProt P23975). Kind of test: Binding affinity at NET.
Test [2] deals with Sodium-dependent serotonin transporter (Homo sapiens) (UniProt P31645). Kind of test: Binding affinity at SERT.

SMILES strings stand for the structures.

The values below come from ChEMBL document CHEMBL1142443, “Design and synthesis of reboxetine analogs morpholine derivatives as selective norepinephrine reuptake inhibitors” (Bioorg Med Chem Lett, 2008).

Sequence of Sodium-dependent noradrenaline transporter (Homo sapiens) (P23975 whole entry): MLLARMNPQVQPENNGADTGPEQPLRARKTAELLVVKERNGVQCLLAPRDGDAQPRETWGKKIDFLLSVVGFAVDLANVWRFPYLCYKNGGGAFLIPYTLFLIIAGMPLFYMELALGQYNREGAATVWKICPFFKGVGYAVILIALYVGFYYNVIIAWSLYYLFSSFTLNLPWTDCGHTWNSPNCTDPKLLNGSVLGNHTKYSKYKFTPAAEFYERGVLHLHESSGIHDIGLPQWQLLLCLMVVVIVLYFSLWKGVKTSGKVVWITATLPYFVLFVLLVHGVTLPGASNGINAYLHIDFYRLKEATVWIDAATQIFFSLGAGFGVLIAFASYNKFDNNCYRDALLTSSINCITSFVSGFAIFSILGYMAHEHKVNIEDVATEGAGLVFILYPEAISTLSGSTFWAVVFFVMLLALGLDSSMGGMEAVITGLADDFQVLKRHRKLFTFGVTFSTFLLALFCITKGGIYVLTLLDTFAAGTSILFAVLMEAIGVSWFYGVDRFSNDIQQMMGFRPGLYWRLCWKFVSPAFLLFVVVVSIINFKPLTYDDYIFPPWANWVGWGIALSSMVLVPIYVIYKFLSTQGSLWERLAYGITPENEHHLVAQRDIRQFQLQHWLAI
Sequence of Sodium-dependent serotonin transporter (Homo sapiens) (P31645 whole entry, looked up): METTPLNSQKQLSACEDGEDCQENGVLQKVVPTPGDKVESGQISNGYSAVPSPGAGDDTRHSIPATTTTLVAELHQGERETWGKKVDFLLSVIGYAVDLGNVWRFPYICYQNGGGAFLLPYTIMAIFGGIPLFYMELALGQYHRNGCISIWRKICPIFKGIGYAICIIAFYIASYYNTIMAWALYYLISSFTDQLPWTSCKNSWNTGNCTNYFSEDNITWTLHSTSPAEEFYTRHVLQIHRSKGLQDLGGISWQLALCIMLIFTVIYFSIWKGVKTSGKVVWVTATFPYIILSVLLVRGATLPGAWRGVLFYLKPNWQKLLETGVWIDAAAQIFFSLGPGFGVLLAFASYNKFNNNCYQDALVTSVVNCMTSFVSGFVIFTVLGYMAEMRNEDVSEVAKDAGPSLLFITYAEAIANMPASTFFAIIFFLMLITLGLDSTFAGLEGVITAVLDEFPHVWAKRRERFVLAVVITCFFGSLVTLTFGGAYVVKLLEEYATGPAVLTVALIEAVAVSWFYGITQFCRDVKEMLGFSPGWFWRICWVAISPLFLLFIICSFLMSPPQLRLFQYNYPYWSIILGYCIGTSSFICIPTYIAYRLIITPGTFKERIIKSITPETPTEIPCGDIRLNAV

Take `Cc1coc([C@H](Oc2c(F)cccc2F)[C@@H]2CNCCO2)n1` (stereo in doubt; form 2): the Activity is 19 nM in test [1] and over 10000 nM in test [2].

On to `Fc1cccc(F)c1O[C@@H](c1cccc2c1OCC2)[C@@H]1CNCCO1`, for which the Activity in test [1] amounted to 13 nM; in test [2] it was 445 nM.

As for `Fc1ccc(O[C@@H](c2ccccc2)[C@@H]2CNCCO2)cc1`, the values for the Activity in test [1] and in test [2] were 21 nM and 1620 nM, respectively.

With `c1ccc([C@H](Oc2ccccc2C2CC2)[C@H]2CNCCO2)cc1`, the Activity in test [1] came to 35 nM; in test [2], 75 nM.

`CCOc1cccc(F)c1O[C@@H](c1ccccc1)[C@@H]1CNCCO1`: the Activity in test [1] was 4 nM; in test [2], 2570 nM.

For `Cc1ccc(C(C)C)c(O[C@@H](c2ccccn2)[C@@H]2CNCCO2)c1`, the Activity in test [1] is 457 nM; in test [2] it was over 8400 nM.

In the case of `CCOc1ccccc1O[C@@H](c1ccccn1)[C@@H]1CNCCO1`, the Activity amounted to 7 nM in test [1] and 6910 nM in test [2].

With `Fc1cccc(F)c1O[C@@H](c1nccs1)[C@@H]1CNCCO1`, the Activity in test [1] is 19 nM; in test [2] it was over 10000 nM.

Consider `CCOc1ccccc1O[C@@H](c1cccc(OC)n1)[C@@H]1CNCCO1`, for which the Activity in test [1] turned out to be 28 nM; in test [2], 676 nM.

As for `COc1cccc(F)c1O[C@@H](c1ccccc1)[C@@H]1CNCCO1`, the values for the Activity in test [1] and in test [2] were 2 nM and over 3500 nM, respectively.

Regarding `Brc1ccccc1O[C@@H](c1ccccc1)[C@@H]1CNCCO1`, the Activity in test [1] worked out at 3 nM; in test [2] it was 477 nM.

`Fc1cccc(F)c1O[C@@H](c1ncco1)[C@@H]1CNCCO1`: the Activity in test [1] was 9 nM; in test [2] it was over 10000 nM.

As to `Fc1cccc(F)c1O[C@H](C1=CCCC1)[C@@H]1CNCCO1`, the Activity in test [1] was 2570 nM; in test [2], 2530 nM.

`c1ccc([C@H](Oc2ccccc2C2CC2)[C@@H]2CNCCO2)cc1`: the Activity in test [1] stood at 2 nM; in test [2], 482 nM.

For the compound `Fc1cccc(F)c1O[C@@H](c1ccccn1)[C@@H]1CNCCO1`, the Activity is 6 nM in test [1] and 8980 nM in test [2].

As to `N#Cc1ccccc1O[C@@H](c1ccccc1)[C@@H]1CNCCO1`, the Activity in test [1] was 18 nM; in test [2] it was over 10000 nM.

For `CS(=O)(=O)c1ccccc1O[C@@H](c1ccccc1)[C@@H]1CNCCO1`, the Activity in test [1] was 1360 nM; in test [2], over 10000 nM.

As to `Fc1ccc(O[C@@H](c2ccccc2)[C@@H]2CNCCO2)c(F)c1`, the Activity in test [1] was 16 nM; in test [2], 617 nM.

On to `Cc1coc([C@@H](Oc2c(F)cccc2F)[C@@H]2CNCCO2)n1`, for which the Activity in test [1] was 6940 nM; in test [2] it was over 10000 nM.

As for `Fc1cccc(OC(c2ccccc2)C2CNCCO2)c1` (stereo not drawn), the Activity in test [1] was 11 nM; in test [2], 13 nM.

On to `Fc1cccc(F)c1O[C@@H](C1=CCCC1)[C@@H]1CNCCO1`, for which the Activity turned out to be 20 nM in test [1] and 3700 nM in test [2].

Turning to `CCOc1ccccc1O[C@@H](c1ccc(CC)cn1)[C@@H]1CNCCO1`, the Activity in test [1] worked out at 49 nM; in test [2] it was 8210 nM.

Take `CCOc1ccccc1O[C@@H](c1ncccc1C)[C@@H]1CNCCO1`: the Activity was found to be 27 nM in test [1] and 3680 nM in test [2].

`Cc1coc([C@H](Oc2c(F)cccc2F)[C@@H]2CNCCO2)n1` (stereo in doubt; form 1): the Activity in test [1] was 18 nM; in test [2] it was over 4500 nM.

Regarding `Fc1cccc(F)c1O[C@@H](Cc1ccccc1)[C@@H]1CNCCO1`, the Activity in test [1] was found to be 66 nM; in test [2], 912 nM.

On to `Fc1cccc(F)c1O[C@@H](c1ccccc1)[C@@H]1CNCCO1`, for which the figures for the Activity in test [1] and in test [2] were 7 nM and 1210 nM, respectively.

On to `Fc1ccccc1O[C@@H](c1ccccc1)[C@@H]1CNCCO1`, for which the results for the Activity in test [1] and in test [2] were 7 nM and 6390 nM, respectively.

As for `Brc1ccccc1O[C@@H](c1ccccc1)[C@H]1CNCCO1`, the Activity in test [1] was 17 nM; in test [2], 105 nM.

For `CCOc1ccccc1O[C@@H](c1cccnc1)[C@@H]1CNCCO1`, the Activity in test [1] is 114 nM; in test [2] it was over 10000 nM.
